# Patent US9074019B2, “Methods, systems, and compositions for calpain inhibition” (HENRY FORD HEALTH SYSTEMS, priority 2008, dated 2015)
# Values joined by “and” are separate entries in the source; they are usually repeats but may differ in a detail not shown here. Equal values may be shown once. “Also recorded” adds a separate entry of the source. Square brackets hold non-standard residues; d marks the D form. Ends that are not written are not given here. βAla = NCCC(=O)O
# Legend:
# [1] = system: focal cerebral ischemia (2 hour MCAO); assay: Infarct volume after 2 hour middle cerebral artery occlusion (MCAO) in rats; format: in vivo, male Wistar rats; conditions: for infarct volume: 3 mg/kg i.v. 4 h, mean±SEM, no unit printed in this block, in %; for Lesion Volume % of Hemisphere (percent hemispheric infarct volume): 3 mg/kg i.v. infusion for 4 h after reperfusion, mean ± SE, n=9, 3 mg/kg
# Text: (§1) We developed our peptidomimetic inhibitors of calpain by rational and systematic chemical modifications of the amide bond and/or side chain functionalities of permutations of SEQ ID NO: 2, followed by calpain-inhibitory kinetic measurements of the designed molecules in vitro as well as an assessment of their ability to improve neurological recovery in vivo after focal cerebral ischemic in rats. The structural modifications performed to create the peptidomimetics included, without limitation, amino acid replacements by chemical mutagenesis, amide bond mimics, methylene group insertion between the α-carbon and the carbonyl functionalities of individual amino acids, replacement of natural amino acid side chains with non-natural moieties, and amino acid side chain cyclizations. Calpain-inhibitory activity of the peptidomimetics was measured by steady-state and stopped-flow enzyme inhibition kinetic studies using purified calpain and natural protein or synthetic fluorogenic peptide substrates. The effect of the peptidomimetics on cerebral infarction, cerebral endothelial function and neurological functional recovery after ischemic stroke was assessed using a rat model of 2 hour middle cerebral artery (“MCAO”) ischemia.
# (§2) Based on our studies, we selected and further tested SEQ ID NO: 5 for its cerebroprotective capacity after 2 hour middle cerebral artery (“MCAO”) ischemia in the Two hour MCAO by the suture method was induced in 21 male Wistar rats. […] Animals survived 7 days and neurological testing (score 0-3, 3 being the most severe) was performed. After sacrifice the brain samples were formalin fixed and infarct volumes were calculated using standard computerized image analysis. Independent t-test was used for statistical analysis.
# (§3) Following an institutionally approved animal care protocol, male Wistar rats (270-290 g) were obtained from Charles River Breeding Co. (Wilmington, Mass., USA). Two-hour middle cerebral artery occlusion (MCAO) by the intravascular suture method, drug infusion, measurement of infarct volume and neurological deficits were performed as detailed previously.
# (§4) SEQ ID NO: 5 (50 μM solution, i.v. infusion at 15 μl/min for 4 h; 3 mg/kg), SEQ ID NO: 13 or vehicle (1% DMSO in saline) was administered to rats […] (n=6-9) immediately after reperfusion following 2 h of MCAO. Sham-operated animals had surgery but no MCA occlusion. Animals to be studied for neurological score and infarct volume survived 7 days.
# From the H&E sections, the ischemic core area with diffuse pallor of the eosinophilic background and the border area with vacuolation or sponginess and neutrophils can be identified under the microscope. […] The subcortical region in the core slices of C and D is also affected (white arrows). The ischemic damage (i.e. cell death, loss of tissue, or encephalomalacia) is less in the SEQ ID NO: 5-treated animals compared to the vehicle-treated controls. By comparison, the contralateral side appeared undamaged by both gross inspection and in histological sections.
# [2] = system: focal cerebral ischemia (2 hour MCAO); assay: Neurological score after 2 hour MCAO in rats; format: in vivo, male Wistar rats; conditions: for Neurological Score 0 Day: score 0-3 (3 most severe), day 0; for Neurological Score 1 Day: day 1
# Procedure: as §2, §3, §4
# Neurological scores have been previously defined as follows: no observable deficit=0, forelimb flexion=1, decreased resistance to lateral push with forelimb flexion=2, same behavior as 2 plus circling=3. […] However, the difference in performance between the SEQ ID NO: 5-treated animals and the vehicle controls (1.00±0.17 vs. 1.78±0.22, *P<0.05, n=9 per group; independent t-test) and the SEQ ID NO: 13-treated group (1.00±0.17 vs. 1.44±0.18, #P<0.05, n=9 per group; independent t-test) was statistically significant at day 7 post-injury.
# We assessed functional outcome as an endpoint of our evaluation by the method of Bederson et al. Treatment with SEQ ID NO: 5 immediately after 2-h MCAO reduced neurological deficits by 24% and 44% on day 4 and day 7, respectively, compared to vehicle-treated stroke controls. Infarct volume was a secondary outcome and was measured at day 7 after stroke. The extent of cerebral infarction was reduced by 35% in the SEQ ID NO: 5-treated animals compared to vehicle-treated animals Due to the predictable location of areas of infarction and consistent production of neurological deficits in the MCAO model used in this study, the effects of SEQ ID NO: 5 on neurological outcome and size of infarction produced by focal cerebral ischemia could be reliably studied. It must be noted, however, that, infarction volumes could correlate poorly with functional outcome because small lesions in cortical locations can produce major functional deficits. Conversely, large lesions in relatively silent areas cause little detectable function loss. Reduction of neurological deficits after stroke has been attributed to synaptic and functional reorganization in the cerebral cortex and in subcortical structures after ischemic injuries.
# (§5) Two-hour middle cerebral artery occlusion (MCAO) was used to induce ischemic stroke in Male Wistar rats. SEQ ID NO: 5 was given intravenously to rats immediately after reperfusion following 2 h of MCAO, while control animals had infusion of vehicle solution (n=6-9). Animals to be studied for neurological score and infarct volume survived 7 days, and neurological testing (mNSS and corner turn) were performed at 1, 4, and 7 days after MCAO. In another set of experiments, the animals were sacrificed at 48 h, and histology was performed for BBB integrity (albumin and fibrin leakage from the cerebral microvasculature into brain parenchyma). Phosphorylation of endothelial nitric oxide synthase (eNOS) was analyzed by Western blotting with specific antibodies raised against synthetic phosphorylated peptides representing known eNOS phosphorylation sites.
# purified calpain = assay: Calpain-inhibitory activity (steady-state and stopped-flow enzyme inhibition kinetics); format: biochemical; conditions: in words
# Text: as §1, §4
# [3] = system: calpain-mediated cleavage of αII-spectrin; assay: Western blot of αII-spectrin breakdown products (SBDPs) in rat brain following MCAO; format: in vivo, male Wistar rats
# Procedure: Following MCAO and drug infusion, the animals were sacrificed after 24 or 48 h of survival. At that time, the brains were extracted and separated into right and left, cortical and subcortical regions, snap-frozen in liquid nitrogen and stored at −80° C. until used. For Western blot analysis, the brain samples were pulverized to a fine powder with a small mortar and pestle set over dry ice. The pulverized brain tissue powder was homogenized in a solution of 0.25 M sucrose, […] 2-(N-morpholino)-ethanesulfonic acid, 1 mM EDTA, pH 6.5, containing 0.025 mM E-64, 2.0 mM AEBSF, 0.5 mM PMSF, 0.02 mM leupeptin, 0.05 mM pepstatin, and 0.001 mM aprotinin (homogenization buffer) at 4° C. in a Potter-Elvehjem homogenizer. T homogenates were then centrifuged at 4° C. for 20 min at 16,000 g. Aliquots of the supernatant were stored at −80° C. until used for experiments. Protein concentrations were determined using micro BCA Protein Assay kit (Pierce, Rockford, Ill.). SDS-PAGE was carried out according to Laemmli and immunoblots were performed according to the technique of Towbin et al. Mouse monoclonal ant II-spectrin antibody (MAB 1622, 1:1,000) and horse radish peroxidase (HRP)-conjugated goat anti-mouse IgG (AP124P, 1:10,000) were from Chemicon (Temecula, Calif.). Labeled proteins were detected with the enhanced chemiluminescence method according to the manufacturer's instructions (GE Healthcare Biosciences, Piscataway, N.J., USA). Bands were quantified by densitometry using Gel-Doc 2000 (Bio-Rad, Richmond, Va.) and the free open source software ImageJ.
# Pathologic activity of calpain and in vivo efficacy of SEQ ID NO: 5 were assessed by Western blot analysis of all-spectrin breakdown products (SBDPs) generated in the rat brain following MCAO. […] (E) Densitometric analysis of SBDP150/SBDP145 levels in ipsilateral cortex and subcortex at 24 and 48 h following MCAO.
# BBB integrity = BBB integrity (albumin and fibrin leakage into brain parenchyma) after MCAO; format: in vivo, male Wistar rats
# Procedure: as §5, with “sites. […] Shown are representative immunoblots of RSA levels in the ipsilateral cortical (A) and subcortical (B) regions of sham-operated, ischemic vehicle-treated, and ischemic. C, Densitometric analysis of RSA levels in ipsilateral cortex and subcortex (*p<0.05 vs vehicle; n=6) at 24 h following MCAO. […] Representative fluorescent micrographs of fibrin deposition outside the cerebral microvasculature of untreated (MCAO, panel A) and treated (+SEQ ID NO: 5, panel B) rats subjected to 2 hour MCA occlusion with reperfusion and 48 hour survival are shown. A schematic representation of a coronal brain section showing eight fields selected from the ischemic boundary zone (IBZ) for quantitative measurements of immunochemical staining for fibrin in the cortex and striatum is shown (panel C).” for “sites.”
# [4] = system: endothelial nitric oxide synthase (eNOS); assay: eNOS phosphorylation in brain after MCAO (Western blotting); format: in vivo, male Wistar rats
# Procedure: as §5
# C: Graphical representation of the ratio of upper:lower phospho-eNOS protein band intensities (n=6 rats/experimental group).
# [5] = rat 2-h MCAO, 3 mg/kg i.v. 4 h, mean ± SE, n=9
# [6] = rat 2-h MCAO, 3 mg/kg i.v. 4 h, score 0-3, mean ± SE, n=9
# [7] = rat 2-h MCAO, 3 mg/kg i.v. 4 h, score 0-3, mean ± SE, n=9, day 4
substance,measurement,setting,value
"DPMSSTYIEE[βAla]GKREVTIPPKYVALLPAVLLALLAP [SEQ ID NO: 13, reference compound]",infarct volume,"[1]; rat 2-h MCAO, day 7",33.8±4.2
same,Lesion Volume % of Hemisphere (percent hemispheric infarct volume),"[1]; rat 2-h MCAO, day 7",33.8±4.2 % of Hemisphere
same,Neurological Score 0 Day,[2]; [5],2.89 ± 0.11
same,Neurological Score 1 Day,[2]; [6],2.11 ± 0.20
same,Neurological Score 4 Days,[2]; [7],1.56 ± 0.18
same,Neurological Score 7 Days,"[2]; rat 2-h MCAO, 3 mg/kg i.v. 4 h, score 0-3, mean ± SE, n=9, day 7, 3 mg/kg",1.44±0.18
same,calpain inhibitory activity,purified calpain,less active
same,calpain inhibitory activity,purified calpain; listed as SEQ ID NO: 5-βAla,inactive
DPMSSTYIEELGKREVTIPPKYVALLPAVLLALLAP [SEQ ID NO: 5],"ischemic damage (cell death, loss of tissue, encephalomalacia) in H&E sections","[1]; FIG. 3, compared to vehicle-treated controls",less
same,infarct volume,"[1]; rat 2-h MCAO, day 7",24.9±3.8
same,Lesion Volume % of Hemisphere (percent hemispheric infarct volume),"[1]; rat 2-h MCAO, day 7","24.9±3.8 % of Hemisphere and 24.9 ± 3.8*^,# % of Hemisphere"
same,reduction of infarct volume (extent of cerebral infarction) compared to vehicle-treated animals,"[1]; rat 2-h MCAO, day 7",35%
same,improving neurological recovery,"[2]; 50 micromolar solution via femoral vein for 4 hours after reperfusion, total dose 3 mg/kg",effective
same,Neurological Score 0 Day,[2]; [5],2.89 ± 0.11
same,Neurological Score 1 Day,[2]; [6],2.33 ± 0.24
same,Neurological Score 4 Days,[2]; [7],1.44 ± 0.18
same,"reduction of neurological deficits compared to vehicle-treated stroke controls, day 4","[2]; rat 2-h MCAO, treatment immediately after MCAO, day 4",24%
same,"reduction of neurological deficits compared to vehicle-treated stroke controls, day 7","[2]; rat 2-h MCAO, treatment immediately after MCAO, day 7",44%
same,calpain-mediated cleavage of αII-spectrin in rat brain following MCAO,"[3]; FIG. 4, 24 h and 48 h",blocks calpain-mediated cleavage of αII-spectrin
same,SBDP145 levels at 48 h post-injury,"[3]; cortical and subcortical regions, 48 h after MCAO, P<0.05 vs. vehicle, n=6",significantly reduced SBDP145 levels
same,SBDP150 and SBDP145 formation at 24 h post-injury,"[3]; ipsilateral cortex and subcortex, 24 h after MCAO",blocked SBDP150 and SBDP145 formation to basal levels; also recorded: completely blocked SBDP145 accumulation
same,BBB integrity as assessed by albumin and fibrin extravasation,"BBB integrity; 48 h, compared to controls",significant improvement
same,rat serum albumin (RSA) leakage into the ischemic brain parenchyma,"BBB integrity; FIG. 5, ipsilateral cortex and subcortex, 24 h following MCAO, p<0.05 vs vehicle, n=6",reduces rat serum albumin (RSA) leakage
same,fibrin deposition outside the cerebral microvasculature,"BBB integrity; FIG. 6, 2 hour MCA occlusion with reperfusion and 48 hour survival",decreases fibrin deposition outside the cerebral microvasculature
same,"eNOS phosphorylation state (eNOS-Ser633, ratio of upper:lower band)","[4]; FIG. 7, n=6 rats/group",modulates eNOS phosphorylation state
same,eNOS threonine-495 phosphorylation in the brain after stroke,"[4]; post-injury treatment, FIG. 8",significantly reduced; also recorded: induces eNOS-Thr495 dephosphorylation
same,calpain inhibitory activity,purified calpain,potent
same,specificity for calpain,purified calpain,specific inhibitor of calpain
same,toxicity to cultured cells,cultured cells,non-toxic to cultured cells
